Test results from ChEMBL document CHEMBL6134887, “Linker and Head-Group Exploration of Anti-MRSA Triaromatic Pleuromutilins” (J Med Chem, 2025).
Converted amounts (≈) assume the structure as drawn. The source made the active and inactive calls. The calls are words filed in the database; no cut-off is given here.

Tests used:
Staphylococcus aureus [1] = experiment: Antibacterial activity against Staphylococcus aureus ATCC 29213 infected in skin infection female BALB/cJRj mouse model assessed as reduction in bacterial load in wound at 2 % administered twice daily at 6 hrs interval as cream formulation and measured on day 4 (reference value: 5.3 x 10^3 CFU/ml); assay type: functional; details: route top, time 4 day
Staphylococcus aureus [2] = experiment: Antibacterial activity against methicillin resistant Staphylococcus aureus clinical isolate 52518 assessed as inhibition of bacterial growth incubated for 20 to 24 hrs by microbroth serial dilution method; assay type: functional; details: time 20-24 hrs, read-out: MIC100
[3] = Metabolic stability in human liver assessed as intrinsic clearance at 1 uM measured up to 30 mins by LC-MS/MS analysis; assay type: ADME, tissue-based; details: read-out: CLH
[4] = Metabolic stability in mouse liver assessed as intrinsic clearance at 1 uM measured up to 60 mins by LC-MS/MS analysis; assay type: ADME, tissue-based; details: read-out: CLH
Staphylococcus aureus [5] = experiment: Antibacterial activity against Staphylococcus aureus ATCC 29213 infected in skin infection female BALB/cJRj mouse model assessed as reduction in bacterial load in wound at 2 % administered twice daily at 6 hrs interval as cream formulation and measured on day 1; assay type: functional; details: route top, time 1 day
[6] = Metabolic stability in human liver microsomes assessed as half-life at 1 uM measured up to 30 mins by LC-MS/MS analysis; assay type: ADME, Microsome
Staphylococcus aureus [7] = experiment: Antibacterial activity against Staphylococcus aureus ATCC 29213 infected in skin infection female BALB/cJRj mouse model assessed as reduction in bacterial load in wound at 2 % administered twice daily at 6 hrs interval as cream formulation and measured on day 5; assay type: functional; details: route top
MDCK-MDR1 = experiment: Cytotoxicity against MDCKII-MDR1 cells assessed as reduction in cell viability at 1 to 10 uM measured after 3 hrs by Celltiter-Glo reagent based assay; assay type: toxicity, Canis lupus familiaris; details: dog, mdck-mdr1, 3 h, dose 1-10 µM
Staphylococcus aureus [8] = experiment: Antibacterial activity against methicillin resistant Staphylococcus aureus clinical isolate 55508 assessed as inhibition of bacterial growth incubated for 20 to 24 hrs by microbroth serial dilution method; assay type: functional; details: time 20-24 hrs, read-out: MIC100
Staphylococcus aureus [9] = experiment: Antibacterial activity against methicillin susceptible Staphylococcus aureus ATCC 29213 assessed as inhibition of bacterial growth incubated for 20 to 24 hrs by microbroth serial dilution method; assay type: functional; details: time 20-24 hrs, read-out: MIC100
[10] = Toxicity in female BALB/cJRj mouse model of skin infection infected with Staphylococcus aureus ATCC 29213 assessed as skin irritation at 2 % administered twice daily at 6 hrs interval as cream formulation and measured on day 4; details: in vivo, topical_or_ocular, 96 h, route top, time 4 day
Enterococcus faecium [11] = experiment: Antibacterial activity against vancomycin, ampicillin and ciprofloxacin resistant Enterococcus faecium clinical isolate 1 assessed as inhibition of bacterial growth incubated for 20 to 24 hrs by microbroth serial dilution method; assay type: functional; details: time 20-24 hrs, read-out: MIC100
[12] = Metabolic stability in mouse liver microsomes assessed as half-life at 1 uM measured up to 60 mins by LC-MS/MS analysis; assay type: ADME, Microsome
Staphylococcus aureus [13] = experiment: Antibacterial activity against mupirocin resistant Staphylococcus aureus 4828 assessed as inhibition of bacterial growth incubated for 20 to 24 hrs by microbroth serial dilution method; assay type: functional; details: time 20-24 hrs, read-out: MIC100
Caco-2 = experiment: Cytotoxicity against human Caco-2 cells assessed as reduction in cell viability at 1 to 10 uM measured after 1 to 8 days by Celltiter-Glo reagent based assay; assay type: toxicity; details: caco-2, 10 µM, dose lower 1 µM, time lower 1 day, dose upper 10 µM, time upper 8 day
Staphylococcus aureus [14] = experiment: Antibacterial activity against methicillin resistant Staphylococcus aureus USA300 FPR3757 assessed as inhibition of bacterial growth incubated for 20 to 24 hrs by microbroth serial dilution method; assay type: functional; details: time 20-24 hrs, read-out: MIC100
[15] = Toxicity in female BALB/cJRj mouse model of skin infection infected with Staphylococcus aureus ATCC 29213 assessed as skin toxicity at 2 % administered twice daily at 6 hrs interval as cream formulation and measured on day 4; details: in vivo, topical_or_ocular, 96 h, route top, time 4 day
DU-145 = experiment: Cytotoxicity against human DU-145 cells assessed as reduction in cell viability at 1 to 10 uM measured after 3 hrs by Celltiter-Glo reagent based assay; assay type: toxicity; details: du-145, 3 h, dose 1-10 µM
Enterococcus faecium [16] = experiment: Antibacterial activity against vancomycin, ampicillin and ciprofloxacin resistant Enterococcus faecium clinical isolate 5 assessed as inhibition of bacterial growth incubated for 20 to 24 hrs by microbroth serial dilution method; assay type: functional; details: time 20-24 hrs, read-out: MIC100
Staphylococcus aureus [17] = experiment: Antibacterial activity against methicillin susceptible Staphylococcus aureus ATCC 25923 assessed as inhibition of bacterial growth incubated for 20 to 24 hrs by microbroth serial dilution method; assay type: functional; details: time 20-24 hrs, read-out: MIC100
Staphylococcus aureus [18] = experiment: Antibacterial activity against methicillin resistant Staphylococcus aureus clinical isolate 933010 assessed as inhibition of bacterial growth incubated for 20 to 24 hrs by microbroth serial dilution method; assay type: functional; details: time 20-24 hrs, read-out: MIC100

Compound: C=C[C@]1(C)C[C@@H](OC(=O)Cn2cc(-c3ccc(Cn4ccc5c(N)ncnc54)nc3)nn2)[C@]2(C)[C@H](C)CC[C@]3(CCC(=O)[C@H]32)[C@@H](C)[C@@H]1O
- Activity (Staphylococcus aureus [1]): 2.5 log10CFU/ml
- MIC (Staphylococcus aureus [2]): < 0.015 µg/mL
- CLint scaled at 1 µM [3]: 199 L/h/kg
- CLint scaled at 1 µM [4]: 566 L/h/kg
- Activity (Staphylococcus aureus [5]): 5.4 10^5CFU/ml
- half-life at 1 µM [6]: 1.9 min
- Activity (Staphylococcus aureus [7]; time 5 day): 1.5 10^7CFU/ml
- Activity (MDCK-MDR1): Non-toxic
- MIC (Staphylococcus aureus [8]): < 0.015 µg/mL
- MIC (Staphylococcus aureus [9]): 0.015 µg/mL (≈ 0.023 µM)
- Activity [10]: Non-toxic
- MIC (Enterococcus faecium [11]): 0.015 µg/mL (≈ 0.023 µM)
- half-life at 1 µM [12]: 0.58 min
- MIC (Staphylococcus aureus [13]): < 0.015 µg/mL
- Activity (Caco-2): Non-toxic
- MIC (Staphylococcus aureus [14]): 0.015 µg/mL (≈ 0.023 µM)
- Activity [15]: Non-toxic
- Activity (DU-145): Non-toxic
- MIC (Enterococcus faecium [16]): 0.03 µg/mL (≈ 0.046 µM)
- MIC (Staphylococcus aureus [17]): 0.06 µg/mL (≈ 0.0919 µM)
- MIC (Staphylococcus aureus [18]): 0.03 µg/mL (≈ 0.046 µM)

Compound: CC(=O)O[C@H]1C[C@@]2(C)[C@@H](C[C@@H](O)[C@H]3[C@@]4(C)CC[C@@H](O)[C@@H](C)[C@@H]4CC[C@@]32C)/C1=C(\CCC=C(C)C)C(=O)O [FUSIDIC ACID]
- Activity (Staphylococcus aureus [1]): 2.5 log10CFU/ml
- Activity (Staphylococcus aureus [5]): 4.8 10^4CFU/ml
- Activity (Staphylococcus aureus [7]; time 5.0 day): Active
- MIC (Staphylococcus aureus [9]): 0.015 µg/mL (≈ 0.029 µM)
- MIC (Staphylococcus aureus [14]): 0.25 µg/mL (≈ 0.484 µM)
- MIC (Staphylococcus aureus [17]): 0.12 µg/mL (≈ 0.232 µM)
